Test results reported in patent US8389544B2, “Isoquinolone compounds as subtype-selective agonists for melatonin receptors MT1 and MT2” (The Hong Kong University of Science and Technology, priority 2007, dated 2013).

Tests used:
Format in all cases: cell-based
MT1 receptor [1] = target: T1, MT1 receptor (Homo sapiens, UniProt P48039); assay: cAMP assay, MT1; design: expressed in transfected cells; host or cells: COS-7 (monkey kidney fibroblast); details: inhibition of forskolin-stimulated cAMP production; MT1-expressing cells
MT2 receptor = target: T2, MT2 receptor (Homo sapiens, UniProt P49286); assay: CRE-Luc (luciferase reporter gene) assay, MT2; design: expressed in transfected cells; details: HEK 293-pCREluc cells with MT2; inhibition of forskolin response
T2 sequence (P49286 1-362): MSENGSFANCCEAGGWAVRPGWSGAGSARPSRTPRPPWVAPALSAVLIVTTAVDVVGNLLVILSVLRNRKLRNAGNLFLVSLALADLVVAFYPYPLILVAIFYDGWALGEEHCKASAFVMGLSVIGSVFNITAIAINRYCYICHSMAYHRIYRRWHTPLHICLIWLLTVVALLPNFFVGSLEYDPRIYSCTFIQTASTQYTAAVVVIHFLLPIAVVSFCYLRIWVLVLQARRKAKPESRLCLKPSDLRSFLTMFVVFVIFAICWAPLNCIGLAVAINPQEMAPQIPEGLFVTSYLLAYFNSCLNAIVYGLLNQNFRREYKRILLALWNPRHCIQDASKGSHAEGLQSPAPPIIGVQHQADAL
Experimental: (§1) The luciferase reporter gene assay offers another way to measure melatonin receptor activation. Cells expressing cAMP-responsive element-driven luciferase reporter gene (293-pCREluc) and either the MT1 or MT2 receptor are treated with forskolin (a substance which stimulates cAMP production as well as the subsequent luciferase gene expression) alone or with a novel isoquinolone compound. As melatonin receptor activation inhibits cAMP production, any suppression in the expression of luciferase leads to a decrease in enzymatic activities and a reduction in the amount of luminescence signal generated.
(§2) The luciferase assay, a reporter gene assay, was performed to confirm the ability of the invention to activate the melatonin receptors. Prior to the assay, HEK (human embryonic kidney) 293 cells are stably transfected with cAMP-responsive element-driven luciferase reporter gene (293-pCREluc) and cDNAs encoding MT1 or MT2 receptors. The cells are then exposed to the novel isoquinolone compounds, after which the substrate luciferin is added and the resulting luminescence measured.
(§3) Prior to the assay human embryonic kidney (HEK) 293 cells (CRL-1573, ATCC) is maintained at 37° C. in minimum essential medium (MEM) supplemented with 10% fetal bovine serum (FBS), 100 units/ml penicillin and 100 μg/ml streptomycin in a humidified atmosphere containing 5% CO2. Human embryonic kidney 293 cells stably transfected with cAMP-responsive element-driven luciferase reporter gene (293-pCREluc) are established and maintained in growth medium supplemented with 300 μg/ml G418 sulphate.
(§4) For luciferase assays, HEK-293 cells stably expressing pCRE-luciferase are seeded at a density of 15,000 cells/well into 96 well plates. Transfection is carried out using Lipofectamine Plus® reagent at 0.2 μl of both Plus and lipofectamine reagents with 50 ng cDNAs encoding MT1 or MT2 receptors per well. After a 3 hour transfection period at 37° C., 50 μl of DMEM with 20% fetal calf serum (FCS) is added into the wells and the plate is incubated at 37° C. for 48 h prior to 24 hour serum starvation. […]
(§5) Cells are harvested by replacing medium in the well by 50 μl luciferase lysis buffer. The Berthold microplate luminometer is maintained at 25° C. throughout the assay. Injector M connected to an empty tube and P connected to the drug tube are set to inject 25 μl of luciferin into appropriate wells. A 1.6 second delay time followed by a 1 second measuring time period is assigned to injector M, whereas injector P is measured for 10 seconds after luciferase substrate is introduced into the well. Results are expressed as relative luminescent units (RLU). Where indicated, agonist-induced activity is expressed as a percentage of the RLU obtained with forskolin.

MT1 receptor [2] = target: T1, MT1 receptor; assay: CRE-Luc (luciferase reporter gene) assay, MT1; design: expressed in transfected cells; details: HEK 293-pCREluc cells with MT1; inhibition of forskolin response
Experimental: as §1, §2, §3, §4, §5

T1 sequence (P48039 whole entry): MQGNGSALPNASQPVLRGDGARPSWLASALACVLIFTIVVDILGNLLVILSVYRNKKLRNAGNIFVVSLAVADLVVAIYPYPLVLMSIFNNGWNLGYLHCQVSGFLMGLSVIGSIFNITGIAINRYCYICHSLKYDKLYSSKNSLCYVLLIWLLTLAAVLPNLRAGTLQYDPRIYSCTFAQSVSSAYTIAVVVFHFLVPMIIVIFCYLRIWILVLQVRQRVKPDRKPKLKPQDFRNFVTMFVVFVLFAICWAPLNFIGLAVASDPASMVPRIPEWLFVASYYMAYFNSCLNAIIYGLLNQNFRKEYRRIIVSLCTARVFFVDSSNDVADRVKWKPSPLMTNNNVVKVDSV

Compound: COc1cc(COc2cc3c(=O)n(C)ccc3cc2OC)cc(OC)c1 [IS523]
- cAMP Assay MT1 % Inh (MT1 receptor [1]): 18.6 ± 14.7%
- CRE-Luc Assay MT2 % Inh ± SEM of 1 μM Fsk (MT2 receptor): 71.6 ± 16.3%
- CRE-Luc Assay MT1 % Inh ± SEM of 1 μM Fsk (MT1 receptor [2]): 70.4 ± 5.6%

Compound: Cn1ccc2cc(OC(=O)c3ccccc3)c(OC(=O)c3ccccc3)cc2c1=O [IS039]
- cAMP Assay MT1 % Inh (MT1 receptor [1]): 8.8 ± 5.8%
- CRE-Luc Assay MT2 % Inh ± SEM of 1 μM Fsk (MT2 receptor): 69.8 ± 7.2%
- CRE-Luc Assay MT1 % Inh ± SEM of 1 μM Fsk (MT1 receptor [2]): 73.0 ± 5.0%

Compound: COc1ccc2c(=O)n(C)ccc2c1OCc1ccc(C)cc1 [IS529]
- cAMP Assay MT1 % Inh (MT1 receptor [1]): 34.0 ± 17.4%
- CRE-Luc Assay MT2 % Inh ± SEM of 1 μM Fsk (MT2 receptor): 61.3 ± 13.1%
- CRE-Luc Assay MT1 % Inh ± SEM of 1 μM Fsk (MT1 receptor [2]): 67.7 ± 5.4%

Compound: COc1cc(COc2cc3ccn(C)c(=O)c3cc2OC)cc(OC)c1 [IS042]
- cAMP Assay MT1 % Inh (MT1 receptor [1]): 81.8 ± 6.2%
- CRE-Luc Assay MT2 % Inh ± SEM of 1 μM Fsk (MT2 receptor): 71.3 ± 8.8%
- CRE-Luc Assay MT1 % Inh ± SEM of 1 μM Fsk (MT1 receptor [2]): 73.9 ± 7.8%

Compound: COc1cccc(COc2cc3ccn(C)c(=O)c3cc2OC)c1 [IS044]
- cAMP Assay MT1 % Inh (MT1 receptor [1]): 72.9 ± 7.5%
- CRE-Luc Assay MT2 % Inh ± SEM of 1 μM Fsk (MT2 receptor): 73.9 ± 12.4%
- CRE-Luc Assay MT1 % Inh ± SEM of 1 μM Fsk (MT1 receptor [2]): 82.3 ± 6.0%

Compound: COc1cc2ccn(C)c(=O)c2cc1OCc1ccc(C(C)(C)C)cc1 [IS526]
- cAMP Assay MT1 % Inh (MT1 receptor [1]): 26.9 ± 24.1%
- CRE-Luc Assay MT2 % Inh ± SEM of 1 μM Fsk (MT2 receptor): 17.8 ± 4.7%
- CRE-Luc Assay MT1 % Inh ± SEM of 1 μM Fsk (MT1 receptor [2]): 36.2 ± 11.8%

Compound: COc1cccc(COc2cc3c(=O)n(C)ccc3cc2OC)c1 [IS521]
- cAMP Assay MT1 % Inh (MT1 receptor [1]): 19.4 ± 17.4%
- CRE-Luc Assay MT2 % Inh ± SEM of 1 μM Fsk (MT2 receptor): 70.2 ± 9.2%
- CRE-Luc Assay MT1 % Inh ± SEM of 1 μM Fsk (MT1 receptor [2]): 84.2 ± 5.5%

Compound: COc1cccc(COc2c(OC)ccc3c(=O)n(C)ccc23)c1 [IS527]
- cAMP Assay MT1 % Inh (MT1 receptor [1]): 28.3 ± 16.0%
- CRE-Luc Assay MT2 % Inh ± SEM of 1 μM Fsk (MT2 receptor): 61.0 ± 9.3%
- CRE-Luc Assay MT1 % Inh ± SEM of 1 μM Fsk (MT1 receptor [2]): 82.4 ± 6.4%

Compound: COc1cc(COc2c(OC)ccc3c(=O)n(C)ccc23)cc(OC)c1 [IS528]
- cAMP Assay MT1 % Inh (MT1 receptor [1]): 39.2 ± 12.0%
- CRE-Luc Assay MT2 % Inh ± SEM of 1 μM Fsk (MT2 receptor): 60.8 ± 8.5%
- CRE-Luc Assay MT1 % Inh ± SEM of 1 μM Fsk (MT1 receptor [2]): 69.7 ± 10.1%
